# Reference: patent publication US20190030018A1 (Celgene Corporation, priority 2017, published 2019)
# Tested on: 563 solid tumor cell lines
# Assay: Luminex assay in PRISM, 5 days treatment (AUC)
# Format: cell-based
# Set-up: AUC: scale not given here
# Experimental: The AUC values provided in Table 80 below were calculated based on the Median Fluorescent Intensity values, the primary read out of the Luminex assay in PRISM. The following parameters were used in this assay: • 8 point dose was used in triplicate • max concentration of 10 μM was used with serial 4-fold dilutions (low of […]) • 563 adherent cell lines in 23 pools. • treatment duration was 5 days.
structure (smiles),measurement,setting,value
"O=C1CCC(N2Cc3cc(CNC(=O)C(F)(F)c4ccc(Cl)cc4)ccc3C2=O)C(=O)N1 (centres unmarked) [Compound 1, 2-(4-chlorophenyl)-N-((2-(2,6-dioxopiperidin-3-yl)-1-oxoisoindolin-5-yl)methyl)-2,2-difluoroacetamide]",activity on solid tumor cell lines (AUC),"8 point dose, max 10 μM, 5 days","highest activity on lung, intestine, stomach, liver, pancreatic and kidney cell lines"
same,AUC,A101D_SKIN,0.821
same,AUC,A172_CENTRAL_NERVOUS_SYSTEM,0.314
same,AUC,A204_SOFT_TISSUE,0.156
same,AUC,A253_SALIVARY_GLAND,0.864
same,AUC,A375_SKIN,0.795
same,AUC,A498_KIDNEY,0.845
same,AUC,A549_LUNG,0.857
same,AUC,A673_BONE,0.885
same,AUC,A704_KIDNEY,0.823
same,AUC,A2058_SKIN,0.818
same,AUC,A2780_OVARY,0.485
same,AUC,ABC1_LUNG,0.591
same,AUC,ACCMESO1_PLEURA,0.631
same,AUC,ACHN_KIDNEY,0.912
same,AUC,AGS_STOMACH,0.865
same,AUC,AM38_CENTRAL_NERVOUS_SYSTEM,0.543
same,AUC,AN3CA_ENDOMETRIUM,0.861
same,AUC,BCPAP_THYROID,0.782
same,AUC,BECKER_CENTRAL_NERVOUS_SYSTEM,0.874
same,AUC,BEN_LUNG,0.826
same,AUC,BFTC909_KIDNEY,0.843
same,AUC,BHT101_THYROID,0.858
same,AUC,BHY_UPPER_AERODIGESTIVE_TRACT,0.405
same,AUC,BICR6_UPPER_AERODIGESTIVE_TRACT,0.801
same,AUC,BICR16_UPPER_AERODIGESTIVE_TRACT,0.585
same,AUC,BICR18_UPPER_AERODIGESTIVE_TRACT,0.845
same,AUC,BICR56_UPPER_AERODIGESTIVE_TRACT,0.984
same,AUC,BT474_BREAST,0.801
same,AUC,BT549_BREAST,0.242
same,AUC,BXPC3_PANCREAS,0.916
same,AUC,C32_SKIN,0.881
same,AUC,CADOES1_BONE,0.566
same,AUC,CAKI2_KIDNEY,0.867
same,AUC,CAL12T_LUNG,0.366
same,AUC,CAL27_UPPER_AERODIGESTIVE_TRACT,0.812
same,AUC,CAL29_URINARY_TRACT,0.831
same,AUC,CAL51_BREAST,0.589
same,AUC,CAL54_KIDNEY,0.679
same,AUC,CAL62_THYROID,0.083
same,AUC,CAL78_BONE,0.798
same,AUC,CAL120_BREAST,0.812
same,AUC,CALU6_LUNG,0.794
same,AUC,CAMA1_BREAST,0.589
same,AUC,CAPAN2_PANCREAS,0.835
same,AUC,CBAGPN_BONE,0.236
same,AUC,CCK81_LARGE_INTESTINE,0.021
same,AUC,CFPAC1_PANCREAS,0.872
same,AUC,CHL1_SKIN,0.330
same,AUC,CHLA10_BONE,0.933
same,AUC,CJM_SKIN,0.215
same,AUC,CL11_LARGE_INTESTINE,0.849
same,AUC,CL34_LARGE_INTESTINE,0.604
same,AUC,COLO678_LARGE_INTESTINE,0.811
same,AUC,COLO679_SKIN,0.830
same,AUC,COLO680N_OESOPHAGUS,0.863
same,AUC,COLO741_SKIN,0.411
same,AUC,COLO792_SKIN,0.629
same,AUC,COLO800_SKIN,0.810
same,AUC,COLO829_SKIN,0.748
same,AUC,CORL23_LUNG,0.879
same,AUC,CORL105_LUNG,0.824
same,AUC,COV318_OVARY,0.883
same,AUC,COV362_OVARY,0.824
same,AUC,COV644_OVARY,0.994
same,AUC,DANG_PANCREAS,0.793
same,AUC,DAOY_CENTRAL_NERVOUS_SYSTEM,0.928
same,AUC,DBTRG05MG_CENTRAL_NERVOUS_SYSTEM,0.795
same,AUC,DETROIT562_UPPER_AERODIGESTIVE_TRACT,0.855
same,AUC,DMS53_LUNG,0.903
same,AUC,DMS273_LUNG,0.771
same,AUC,DU145_PROSTATE,0.878
same,AUC,DV90_LUNG,0.174
same,AUC,EBC1_LUNG,0.960
same,AUC,ECGI10_OESOPHAGUS,0.877
same,AUC,EFE184_ENDOMETRIUM,0.679
same,AUC,EFM19_BREAST,0.917
same,AUC,EFM192A_BREAST,0.766
same,AUC,EFO21_OVARY,0.843
same,AUC,EFO27_OVARY,0.534
same,AUC,EKVX_LUNG,0.837
same,AUC,EN_ENDOMETRIUM,0.831
same,AUC,ES2_OVARY,0.801
same,AUC,ESS1_ENDOMETRIUM,0.512
same,AUC,EW8_BONE,0.985
same,AUC,EWS502_BONE,0.875
same,AUC,FADU_UPPER_AERODIGESTIVE_TRACT,0.859
same,AUC,FTC133_THYROID,0.833
same,AUC,FTC238_THYROID,0.8424
same,AUC,G292CLONEA141B1_BONE,0.2746
same,AUC,G402_SOFT_TISSUE,0.8297
same,AUC,GAMG_CENTRAL_NERVOUS_SYSTEM,0.365
same,AUC,GB1_CENTRAL_NERVOUS_SYSTEM,0.8359
same,AUC,GCIY_STOMACH,0.8662
same,AUC,GI1_CENTRAL_NERVOUS_SYSTEM,0.5874
same,AUC,GMS10_CENTRAL_NERVOUS_SYSTEM,0.4048
same,AUC,GOS3_CENTRAL_NERVOUS_SYSTEM,0.5047
same,AUC,GP2D_LARGE_INTESTINE,0.796
same,AUC,HARA_LUNG,0.7964
same,AUC,HCC15_LUNG,0.9583
same,AUC,HCC38_BREAST,0.4873
same,AUC,HCC44_LUNG,0.906
same,AUC,HCC56_LARGE_INTESTINE,0.849
same,AUC,HCC78_LUNG,0.793
same,AUC,HCC366_LUNG,0.3183
same,AUC,HCC827_LUNG,0.516
same,AUC,HCC1143_BREAST,0.8133
same,AUC,HCC1195_LUNG,0.9004
same,AUC,HCC1359_LUNG,0.875
same,AUC,HCC1395_BREAST,0.9508
same,AUC,HCC1419_BREAST,0.8487
same,AUC,HCC1428_BREAST,0.9167
same,AUC,HCC1438_LUNG,0.9701
same,AUC,HCC1806_BREAST,0.8775
same,AUC,HCC1937_BREAST,0.579
same,AUC,HCC1954_BREAST,0.8107
same,AUC,HCC4006_LUNG,0.8403
same,AUC,HCT15_LARGE_INTESTINE,0.554
same,AUC,HCT116_LARGE_INTESTINE,0.826
same,AUC,HDQP1_BREAST,0.825
same,AUC,HEC1A_ENDOMETRIUM,0.832
same,AUC,HEC6_ENDOMETRIUM,0.858
same,AUC,HEC59_ENDOMETRIUM,0.794
same,AUC,HEC108_ENDOMETRIUM,0.812
same,AUC,HEC151_ENDOMETRIUM,0.903
same,AUC,HEC251_ENDOMETRIUM,0.698
same,AUC,HEC265_ENDOMETRIUM,0.831
same,AUC,HEP3B217_LIVER,0.596
same,AUC,HEPG2_LIVER,0.511
same,AUC,HGC27_STOMACH,0.846
same,AUC,HLF_LIVER,0.952
same,AUC,HMC18_BREAST,0.847
same,AUC,HOS_BONE,0.854
same,AUC,HS294T_SKIN,0.883
same,AUC,HS729_SOFT_TISSUE,0.598
same,AUC,HS746T_STOMACH,0.428
same,AUC,HS766T_PANCREAS,0.830
same,AUC,HS852T_SKIN,0.710
same,AUC,HS939T_SKIN,0.836
same,AUC,HS944T_SKIN,0.719
same,AUC,HSC2_UPPER_AERODIGESTIVE_TRACT,0.597
same,AUC,HSC3_UPPER_AERODIGESTIVE_TRACT,0.834
same,AUC,HT29_LARGE_INTESTINE,0.546
same,AUC,HT55_LARGE_INTESTINE,0.571
same,AUC,HT144_SKIN,0.641
same,AUC,HT1376_URINARY_TRACT,0.900
same,AUC,HUCCT1_BILIARY_TRACT,0.533
same,AUC,HUH1_LIVER,0.508
same,AUC,HUH6_LIVER,0.867
same,AUC,HUH28_BILIARY_TRACT,0.267
same,AUC,HUPT3_PANCREAS,0.876
same,AUC,HUPT4_PANCREAS,0.5948
same,AUC,IALM_LUNG,0.2481
same,AUC,IGR37_SKIN,0.8495
same,AUC,IGROV1_OVARY,0.6978
same,AUC,IM95_STOMACH,0.111
same,AUC,IPC298_SKIN,0.894
same,AUC,ISHIKAWAHERAKLIO02ER_ENDOMETRIUM,0.8402
same,AUC,ISTMES1_PLEURA,0.1381
same,AUC,ISTMES2_PLEURA,0.8192
same,AUC,J82_URINARY_TRACT,0.8263
same,AUC,JHH1_LIVER,0.469
same,AUC,JHH4_LIVER,0.680
same,AUC,JHH5_LIVER,0.806
same,AUC,JHH6_LIVER,0.449
same,AUC,JHH7_LIVER,0.778
same,AUC,JHOC5_OVARY,0.865
same,AUC,JHOM1_OVARY,0.833
same,AUC,JHOS2_OVARY,0.566
same,AUC,JHUEM2_ENDOMETRIUM,0.761
same,AUC,JIMT1_BREAST,0.816
same,AUC,JL1_PLEURA,0.591
same,AUC,JMSU1_URINARY_TRACT,0.842
same,AUC,K029AX_SKIN,0.834
same,AUC,KALS1_CENTRAL_NERVOUS_SYSTEM,0.838
same,AUC,KE39_STOMACH,0.521
same,AUC,KELLY_AUTONOMIC_GANGLIA,0.591
same,AUC,KMBC2_URINARY_TRACT,0.913
same,AUC,KMRC1_KIDNEY,0.842
same,AUC,KMRC3_KIDNEY,0.990
same,AUC,KMRC20_KIDNEY,0.951
same,AUC,KNS42_CENTRAL_NERVOUS_SYSTEM,0.826
same,AUC,KNS60_CENTRAL_NERVOUS_SYSTEM,0.795
same,AUC,KNS62_LUNG,0.842
same,AUC,KNS81_CENTRAL_NERVOUS_SYSTEM,0.808
same,AUC,KP2_PANCREAS,0.767
same,AUC,KP3_PANCREAS,0.592
same,AUC,KP4_PANCREAS,0.447
same,AUC,KPL1_BREAST,0.890
same,AUC,KPNYN_AUTONOMIC_GANGLIA,0.648
same,AUC,KU1919_URINARY_TRACT,0.926
same,AUC,KURAMOCHI_OVARY,0.857
same,AUC,KYSE70_OESOPHAGUS,0.788
same,AUC,KYSE140_OESOPHAGUS,0.883
same,AUC,KYSE150_OESOPHAGUS,0.863
same,AUC,KYSE180_OESOPHAGUS,0.865
same,AUC,KYSE270_OESOPHAGUS,0.835
same,AUC,KYSE510_OESOPHAGUS,0.870
same,AUC,KYSE520_OESOPHAGUS,0.887
same,AUC,LC1SQSF_LUNG,0.936
same,AUC,LI7_LIVER,0.811
same,AUC,LK2_LUNG,0.768
same,AUC,LN229_CENTRAL_NERVOUS_SYSTEM,0.758
same,AUC,LNCAPCLONEFGC_PROSTATE,0.672
same,AUC,LOXIMVI_SKIN,0.905
same,AUC,LS180_LARGE_INTESTINE,0.142
same,AUC,LS411N_LARGE_INTESTINE,0.811
same,AUC,LS513_LARGE_INTESTINE,0.235
same,AUC,LS1034_LARGE_INTESTINE,0.223
same,AUC,LU99_LUNG,0.421
same,AUC,LXF289_LUNG,0.858
same,AUC,MALME3M_SKIN,0.180
same,AUC,MCAS_OVARY,0.845
same,AUC,MCF7_BREAST,0.831
same,AUC,MDAMB175VII_BREAST,0.524
same,AUC,MDAMB231_BREAST,0.278
same,AUC,MDAMB435S_SKIN,0.845
same,AUC,MELHO_SKIN,0.907
same,AUC,MELJUSO_SKIN,0.845
same,AUC,MEWO_SKIN,0.267
same,AUC,MFE280_ENDOMETRIUM,0.881
same,AUC,MFE296_ENDOMETRIUM,0.824
same,AUC,MFE319_ENDOMETRIUM,0.751
same,AUC,MG63_BONE,0.968
same,AUC,MHHES1_BONE,0.984
same,AUC,MIAPACA2_PANCREAS,0.866
same,AUC,MKN1_STOMACH,0.871
same,AUC,MKN7_STOMACH,0.841
same,AUC,MKN45_STOMACH,0.338
same,AUC,MKN74_STOMACH,0.883
